From ChEMBL document CHEMBL5252610, “Synthesis, Characterization, and Bioactivity of the Lichen Pigments Pulvinamide, Rhizocarpic Acid, and Epanorin and Congeners” (J Nat Prod, 2023)
Converted amounts (≈) assume the structure as drawn.

Experiments:
Spodoptera littoralis [1] = experiment: Insecticidal activity against Spodoptera littoralis neonate larvae assessed as reduction in weight gain of larvae; format: functional
Spodoptera littoralis [2] = experiment: Insecticidal activity against Spodoptera littoralis assessed as reduction in number of pupae in adulthood (Rvb=90%); format: functional; parameters: scale not given: the % may be the effect or the level left
Bacillus subtilis = experiment: Antibacterial activity against Bacillus subtilis ATCC 6633 assessed as bacterial growth inhibition incubated for 48 hrs by resazurin microtiter assay; format: functional
Staphylococcus aureus = experiment: Antibacterial activity against Staphylococcus aureus ATCC 25923 assessed as bacterial growth inhibition incubated for 48 hrs by resazurin microtiter assay; format: functional
Candida albicans = experiment: Antifungal activity against Candida albicans ATCC 10231 assessed as bacterial growth inhibition incubated for 48 hrs by bromocresol green based broth dilution assay; format: functional
Saccharomyces cerevisiae = experiment: Antifungal activity against Saccharomyces cerevisiae ATCC 9763 assessed as bacterial growth inhibition incubated for 48 hrs by bromocresol green based broth dilution assay; format: functional
Giardia intestinalis = experiment: Antiparasitic activity against Giardia intestinalis 713 assessed as bacterial growth inhibition incubated for 96 hrs by microtiter assay; format: functional; details: Giardia duodenalis
[3] = Anticancer activity against mouse NS-1 cells assessed as reduction in cell viability incubated for 96 hrs by resazurin based assay; format: functional
[4] = Cytotoxicity against human NFF cells assessed as reduction in cell viability incubated for 96 hrs by resazurin based assay; format: toxicity; details: read-out: MIC

Compound	MIC (Bacillus subtilis)	MIC (Staphylococcus aureus)	MIC (Candida albicans)	MIC (Saccharomyces cerevisiae)	MIC (Giardia intestinalis)	MIC [3]	ED50 (Spodoptera littoralis [1])	Activity (Spodoptera littoralis [2])	MCC at 96 h [4]
COC(=O)[C@H](Cc1ccccc1)NC(=O)/C(=C1/OC(=O)C(c2ccccc2)=C1O)c1ccccc1	50 µg/mL (≈ 106 µM)	> 100 µg/mL	> 200 µg/mL	> 200 µg/mL	100 µg/mL (≈ 213 µM)	3.1 µg/mL (≈ 6.6 µM)	71 µmol/g	25%	> 100 µg/mL
COC(=O)[C@@H](Cc1ccccc1)NC(=O)/C(=C1/OC(=O)C(c2ccccc2)=C1O)c1ccccc1	50 µg/mL (≈ 106 µM)	50 µg/mL (≈ 106 µM)	> 200 µg/mL	> 200 µg/mL	25 µg/mL (≈ 53.2 µM)	50 µg/mL (≈ 106 µM)	–	–	> 100 µg/mL
CN(CC[C@H](N)CC(=O)N[C@H]1C=C[C@H](n2ccc(N)nc2=O)O[C@@H]1C(=O)O)C(=N)N.Cl	–	–	> 200 µg/mL	3.1 µg/mL	–	–	–	–	–
NC(=O)/C(=C1/OC(=O)C(c2ccccc2)=C1O)c1ccccc1	50 µg/mL (≈ 163 µM)	> 100 µg/mL	200 µg/mL (≈ 651 µM)	100 µg/mL (≈ 325 µM)	–	–	–	–	–
O=C1O/C(=C(/C(=O)O)c2ccccc2)C(O)=C1c1ccccc1 [PULVIC ACID]	> 100 µg/mL	> 100 µg/mL	> 100 µg/mL	> 100 µg/mL	–	–	–	–	–
COC(=O)[C@@H](CC(C)C)NC(=O)/C(=C1/OC(=O)C(c2ccccc2)=C1O)c1ccccc1	50 µg/mL (≈ 115 µM)	100 µg/mL (≈ 230 µM)	> 200 µg/mL	> 200 µg/mL	25 µg/mL (≈ 57.4 µM)	50 µg/mL (≈ 115 µM)	–	–	> 100 µg/mL
Cc1ncc([N+](=O)[O-])n1CCO [METRONIDAZOLE]	–	–	–	–	0.3 µg/mL (≈ 1.75 µM)	–	–	–	–
O=C1O/C(=C(/C(=O)N[C@@H](Cc2ccccc2)C(=O)O)c2ccccc2)C(O)=C1c1ccccc1	100 µg/mL (≈ 220 µM)	> 100 µg/mL	> 200 µg/mL	> 200 µg/mL	> 100 µg/mL	> 100 µg/mL	–	–	> 100 µg/mL

Further lines, with some results ahead:

MIC (Bacillus subtilis)	MIC (Staphylococcus aureus)	MIC (Candida albicans)	MIC (Saccharomyces cerevisiae)	MIC (Giardia intestinalis)	MIC [3]	Compound	ED50 (Spodoptera littoralis [1])	Activity (Spodoptera littoralis [2])	MCC at 96 h [4]
> 100 µg/mL	> 100 µg/mL	> 200 µg/mL	> 200 µg/mL	50 µg/mL (≈ 115 µM)	25 µg/mL (≈ 57.4 µM)	COC(=O)[C@H](CC(C)C)NC(=O)/C(=C1/OC(=O)C(c2ccccc2)=C1O)c1ccccc1	–	–	> 100 µg/mL
6.3 µg/mL (≈ 14.2 µM)	12.5 µg/mL (≈ 28.1 µM)	–	–	–	–	CN(C)[C@@H]1C(O)=C(C(N)=O)C(=O)[C@@]2(O)C(O)=C3C(=O)c4c(O)cccc4[C@@](C)(O)[C@H]3C[C@@H]12 [TETRACYCLINE]	–	–	–
> 100 µg/mL	> 100 µg/mL	> 100 µg/mL	> 100 µg/mL	–	–	O=C1OC2=C(c3ccccc3)C(=O)OC2=C1c1ccccc1 [PULVINIC DILACTONE]	–	–	–
–	–	–	–	–	0.6 µg/mL (≈ 1.66 µM)	CSC[S+]([O-])C[C@H](CO)NC(=O)/C=C/c1c(C)[nH]c(=O)[nH]c1=O (stereo partly drawn)	–	–	0.6 µg/mL
> 100 µg/mL	> 100 µg/mL	> 200 µg/mL	> 200 µg/mL	> 100 µg/mL	> 100 µg/mL	CC(C)C[C@H](NC(=O)/C(=C1/OC(=O)C(c2ccccc2)=C1O)c1ccccc1)C(=O)O	–	–	> 100 µg/mL
